{"source": "the supplement of paper PMC10307832", "assay_in_all_cases": "relative viability (nuclei count vs DMSO), 5 days (fraction); higher = more cells survive", "key": {"XMD8-85 + Pemetrexed": {"compound": "CN1CCN(CC1)C2=CC(=C(C=C2)NC3=NC=C4C(=N3)N(C5=CC=CC=C5C(=O)N4C)C)OC [XMD8-85] + Nc1nc2[nH]cc(CCc3ccc(C(=O)N[C@@H](CCC(=O)O)C(=O)O)cc3)c2c(=O)[nH]1 [Pemetrexed] (partner 0.2 µM)", "how_it_was_run": "(§1)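 Lung cancer cell lines in 1536-well plates were dosed by pin tool the day after seeding, either with one drug alone or with a fixed anchor-drug dose plus five library-drug doses (not always all listed) in √10 steps. After 5 days, cells were fixed and their nuclei stained in one step (final 0.05% Triton X-100, 1% formaldehyde, 1 ug/ml Hoechst), then counted on 4× images. Relative viability is the nuclei count in treated wells divided by that in vehicle wells. Values are medians of duplicate plates.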"}, "XMD8-85 + Olaparib": {"compound": "CN1CCN(CC1)C2=CC(=C(C=C2)NC3=NC=C4C(=N3)N(C5=CC=CC=C5C(=O)N4C)C)OC [XMD8-85] + O=C(c1cc(Cc2n[nH]c(=O)c3ccccc23)ccc1F)N1CCN(C(=O)C2CC2)CC1 [Olaparib] (partner 8 µM)", "how_it_was_run": "as §1"}, "4EGI-1 + Pictilisib": {"compound": "O=C(O)C(Cc1ccccc1[N+](=O)[O-])=NNc1nc(-c2ccc(Cl)c(Cl)c2)cs1 (mixture of isomers) [4EGI-1] + CS(=O)(=O)N1CCN(Cc2cc3nc(-c4cccc5[nH]ncc45)nc(N4CCOCC4)c3s2)CC1 [Pictilisib] (partner 1 µM)", "how_it_was_run": "as §1"}, "4EGI-1 + Vorinostat": {"compound": "O=C(O)C(Cc1ccccc1[N+](=O)[O-])=NNc1nc(-c2ccc(Cl)c(Cl)c2)cs1 (mixture of isomers) [4EGI-1] + O=C(CCCCCCC(=O)Nc1ccccc1)NO [Vorinostat] (partner 1 µM)", "how_it_was_run": "as §1"}}, "data": [{"cell line": "NCI-H1355", "values": [{"measurement": "relative viability", "setting": "XMD8-85 + Pemetrexed; first compound 0.08 µM", "result": 1.04}, {"measurement": "relative viability", "setting": "XMD8-85 + Pemetrexed; first compound 0.253 µM", "result": 1.02}, {"measurement": "relative viability", "setting": "XMD8-85 + Pemetrexed; first compound 0.8 µM", "result": 1.03}, {"measurement": "relative viability", "setting": "XMD8-85 + Pemetrexed; first compound 2.53 µM", "result": 1.07}, {"measurement": "relative viability", "setting": "XMD8-85 + Pemetrexed; first compound 8 µM", "result": 0.976}, {"measurement": "relative viability", "setting": "XMD8-85 + Olaparib; first compound 0.08 µM", "result": 0.744}, {"measurement": "relative viability", "setting": "XMD8-85 + Olaparib; first compound 0.253 µM", "result": 0.79}, {"measurement": "relative viability", "setting": "XMD8-85 + Olaparib; first compound 0.8 µM", "result": 0.714}, {"measurement": "relative viability", "setting": "XMD8-85 + Olaparib; first compound 2.53 µM", "result": 0.657}, {"measurement": "relative viability", "setting": "XMD8-85 + Olaparib; first compound 8 µM", "result": 0.589}, {"measurement": "relative viability", "setting": "4EGI-1 + Pictilisib; first compound 0.5 µM", "result": 0.372}, {"measurement": "relative viability", "setting": "4EGI-1 + Pictilisib; first compound 1.581 µM", "result": 0.396}, {"measurement": "relative viability", "setting": "4EGI-1 + Pictilisib; first compound 5 µM", "result": 0.493}, {"measurement": "relative viability", "setting": "4EGI-1 + Pictilisib; first compound 15.81 µM", "result": 0.362}, {"measurement": "relative viability", "setting": "4EGI-1 + Pictilisib; first compound 50 µM", "result": 0.277}, {"measurement": "relative viability", "setting": "4EGI-1 + Vorinostat; first compound 0.5 µM", "result": 0.698}, {"measurement": "relative viability", "setting": "4EGI-1 + Vorinostat; first compound 1.581 µM", "result": 0.586}, {"measurement": "relative viability", "setting": "4EGI-1 + Vorinostat; first compound 5 µM", "result": 0.662}, {"measurement": "relative viability", "setting": "4EGI-1 + Vorinostat; first compound 15.81 µM", "result": 0.595}, {"measurement": "relative viability", "setting": "4EGI-1 + Vorinostat; first compound 50 µM", "result": 0.514}]}, {"cell line": "NCI-H596", "values": [{"measurement": "relative viability", "setting": "XMD8-85 + Pemetrexed; first compound 0.08 µM", "result": 0.477}, {"measurement": "relative viability", "setting": "XMD8-85 + Pemetrexed; first compound 0.8 µM", "result": 0.457}, {"measurement": "relative viability", "setting": "XMD8-85 + Pemetrexed; first compound 2.53 µM", "result": 0.465}, {"measurement": "relative viability", "setting": "XMD8-85 + Pemetrexed; first compound 8 µM", "result": 0.368}, {"measurement": "relative viability", "setting": "XMD8-85 + Olaparib; first compound 0.08 µM", "result": 0.696}, {"measurement": "relative viability", "setting": "XMD8-85 + Olaparib; first compound 0.253 µM", "result": 0.602}, {"measurement": "relative viability", "setting": "XMD8-85 + Olaparib; first compound 0.8 µM", "result": 0.702}, {"measurement": "relative viability", "setting": "XMD8-85 + Olaparib; first compound 2.53 µM", "result": 0.49}, {"measurement": "relative viability", "setting": "XMD8-85 + Olaparib; first compound 8 µM", "result": 0.467}, {"measurement": "relative viability", "setting": "4EGI-1 + Pictilisib; first compound 0.5 µM", "result": 0.439}, {"measurement": "relative viability", "setting": "4EGI-1 + Pictilisib; first compound 1.581 µM", "result": 0.394}, {"measurement": "relative viability", "setting": "4EGI-1 + Pictilisib; first compound 5 µM", "result": 0.394}, {"measurement": "relative viability", "setting": "4EGI-1 + Pictilisib; first compound 15.81 µM", "result": 0.4}, {"measurement": "relative viability", "setting": "4EGI-1 + Pictilisib; first compound 50 µM", "result": 0.352}, {"measurement": "relative viability", "setting": "4EGI-1 + Vorinostat; first compound 0.5 µM", "result": 0.648}, {"measurement": "relative viability", "setting": "4EGI-1 + Vorinostat; first compound 1.581 µM", "result": 0.495}, {"measurement": "relative viability", "setting": "4EGI-1 + Vorinostat; first compound 5 µM", "result": 0.6}, {"measurement": "relative viability", "setting": "4EGI-1 + Vorinostat; first compound 15.81 µM", "result": 0.475}, {"measurement": "relative viability", "setting": "4EGI-1 + Vorinostat; first compound 50 µM", "result": 0.375}]}, {"cell line": "NCI-H1975", "values": [{"measurement": "relative viability", "setting": "XMD8-85 + Pemetrexed; first compound 0.08 µM", "result": 0.257}, {"measurement": "relative viability", "setting": "XMD8-85 + Pemetrexed; first compound 0.253 µM", "result": 0.286}, {"measurement": "relative viability", "setting": "XMD8-85 + Pemetrexed; first compound 0.8 µM", "result": 0.305}, {"measurement": "relative viability", "setting": "XMD8-85 + Pemetrexed; first compound 2.53 µM", "result": 0.282}, {"measurement": "relative viability", "setting": "XMD8-85 + Pemetrexed; first compound 8 µM", "result": 0.227}, {"measurement": "relative viability", "setting": "XMD8-85 + Olaparib; first compound 0.08 µM", "result": 0.774}, {"measurement": "relative viability", "setting": "XMD8-85 + Olaparib; first compound 0.253 µM", "result": 0.784}, {"measurement": "relative viability", "setting": "XMD8-85 + Olaparib; first compound 0.8 µM", "result": 0.88}, {"measurement": "relative viability", "setting": "XMD8-85 + Olaparib; first compound 2.53 µM", "result": 0.711}, {"measurement": "relative viability", "setting": "XMD8-85 + Olaparib; first compound 8 µM", "result": 0.376}, {"measurement": "relative viability", "setting": "4EGI-1 + Pictilisib; first compound 0.5 µM", "result": 0.309}, {"measurement": "relative viability", "setting": "4EGI-1 + Pictilisib; first compound 1.581 µM", "result": 0.324}, {"measurement": "relative viability", "setting": "4EGI-1 + Pictilisib; first compound 5 µM", "result": 0.316}, {"measurement": "relative viability", "setting": "4EGI-1 + Pictilisib; first compound 15.81 µM", "result": 0.322}, {"measurement": "relative viability", "setting": "4EGI-1 + Pictilisib; first compound 50 µM", "result": 0.294}, {"measurement": "relative viability", "setting": "4EGI-1 + Vorinostat; first compound 0.5 µM", "result": 0.79}, {"measurement": "relative viability", "setting": "4EGI-1 + Vorinostat; first compound 1.581 µM", "result": 0.679}, {"measurement": "relative viability", "setting": "4EGI-1 + Vorinostat; first compound 5 µM", "result": 0.754}, {"measurement": "relative viability", "setting": "4EGI-1 + Vorinostat; first compound 15.81 µM", "result": 0.7}, {"measurement": "relative viability", "setting": "4EGI-1 + Vorinostat; first compound 50 µM", "result": 0.357}]}, {"cell line": "H3255", "values": [{"measurement": "relative viability", "setting": "XMD8-85 + Pemetrexed; first compound 0.08 µM", "result": 0.558}, {"measurement": "relative viability", "setting": "XMD8-85 + Pemetrexed; first compound 0.8 µM", "result": 0.525}, {"measurement": "relative viability", "setting": "XMD8-85 + Pemetrexed; first compound 2.53 µM", "result": 0.599}, {"measurement": "relative viability", "setting": "XMD8-85 + Pemetrexed; first compound 8 µM", "result": 0.375}, {"measurement": "relative viability", "setting": "XMD8-85 + Olaparib; first compound 0.08 µM", "result": 0.581}, {"measurement": "relative viability", "setting": "XMD8-85 + Olaparib; first compound 0.253 µM", "result": 0.603}, {"measurement": "relative viability", "setting": "XMD8-85 + Olaparib; first compound 0.8 µM", "result": 0.512}, {"measurement": "relative viability", "setting": "XMD8-85 + Olaparib; first compound 2.53 µM", "result": 0.504}, {"measurement": "relative viability", "setting": "XMD8-85 + Olaparib; first compound 8 µM", "result": 0.369}, {"measurement": "relative viability", "setting": "4EGI-1 + Pictilisib; first compound 0.5 µM", "result": 0.578}, {"measurement": "relative viability", "setting": "4EGI-1 + Pictilisib; first compound 1.581 µM", "result": 0.431}, {"measurement": "relative viability", "setting": "4EGI-1 + Pictilisib; first compound 5 µM", "result": 0.516}, {"measurement": "relative viability", "setting": "4EGI-1 + Pictilisib; first compound 15.81 µM", "result": 0.361}, {"measurement": "relative viability", "setting": "4EGI-1 + Pictilisib; first compound 50 µM", "result": 0.453}, {"measurement": "relative viability", "setting": "4EGI-1 + Vorinostat; first compound 0.5 µM", "result": 0.792}, {"measurement": "relative viability", "setting": "4EGI-1 + Vorinostat; first compound 5 µM", "result": 0.77}, {"measurement": "relative viability", "setting": "4EGI-1 + Vorinostat; first compound 50 µM", "result": 0.735}]}]}
